Data published in patent publication US8591908B2, “Immunogen for preparation of therapeutic vaccines or drugs for treatment of hepatitis B and the producing method and use thereof” (Institute of Immunology, PLA, priority 2002, dated 2013).
Ends that are not written are not given here. * marks the point of attachment. Palmitoyl = CCCCCCCCCCCCCCCC(=O)*; Lauroyl = CCCCCCCCCCCC(=O)*

Key:
[1] = system: HLA-A2+ human PBMC; experiment: FIG. 4: IFN-γ secreting CTL cells, ELISPOT; format: cell-based; settings: 24 h after last stimulation
Description: (§1) FIG. 4 indicated the effect of inducing cytotoxicity. […] Three days after the last stimulation, antigen-specific effector CTL cells were obtained, and their cytotoxic activities were measured by the standard ^51Cr release test and compared. […] Twenty-four hours after the last stimulation to HLA-A2+ human PBMC, the effects of the test drug to induce the proliferating INF-γ secreting CTL cells in peripheral blood lymphocytes were measured in the ELISPOT method and compared.

[2] = system: 2215, E6 and T2 target cells; experiment: FIG. 4: induced CTL cytotoxicity, 51Cr release test; format: cell-based, human; settings: 10 ng test drug; E/T 12.5, 25, 50, 100
Description: as §1

[3] = system: PBMCs from hepatitis B patient; experiment: Lymphocyte activation (Th1/Th2) of PBMCs from hepatitis B patient; format: cell-based, human; settings: IL-4, IL-10, IFN-γ in culture supernatants, acute and chronic hepatitis
Source text: Acute and chronic hepatitis blank control groups, acute hepatitis+/test drug group and chronic hepatitis+/test drug group were included to test the Th1/Th2 activation by Endogen kit or EELISPOT method.

[4] = system: Balb/c mice; experiment: ELISPOT test of induced cytotoxicity in immunized mice; format: in vivo; settings: IFN-γ ELISPOT of PBMC
Source text: Balb/c mice of 2-3 Months old (both male and female) were divided into 8 groups, and were immunized with the present compound at both postpede palmas once a week for three times at different doses: 0.001 nmol, 0.01 nmol, 0.1 nmol, 0.5 nmol, 1 nmol, 10 nmol, 20 nmol, and 40 nmol respectively. Bloods were taken postorbitally from mice under sterile conditions on the 6th, 12th, 18th and 24th day after the end of immunization respectively and were anticoagulatant-treated. PBMCs were isolated by Ficoll-Hypaque method, and were cultured in RPMI1640 culture media (containing 10% calf serum, and 100μ/ml penicillin-streptomycin) (10^6/ml, 96-well culture plate) in vitro for one day. After they returned to the original growth state, they were used as test cells. ELISPOT 96-well cell culture plate was pre-coated with IFN-γ coating antibody overnight, each well was treated in triplicate. The wells were blocked with RPMI1640 containing 5% calf serum at room temperature for 1 hour. After drying in air, test cells were added (5×10^4 cells/100 μl/well, containing RPMI1640 media, 10% calf serum, 100μ/ml myciline, and 1 μg/ml peptide), wherein the PBMC of mice immunized with melan A27-35 peptide were set as negative control. […] Then the plate was washed again and dried in air, the substrate was added for visualization and the number of spots was counted.

[5] = system: PBMCs from acute hepatitis B patient in convalescent phase; experiment: Proliferation of lymphocytes in PBMC of acute hepatitis B patient, 3H-TdR; format: cell-based, human; settings: 0.1 μg, 1 μg and 10 μg/ml with IL-2
Description: Anticoagulant peripheral blood was collected aseptically from acute hepatitis B patient in convalescent phase, PBMCs were isolated by conventional Ficoll-Hypaque density gradient centrifugation and were cultured in RPMI1640 cultural media (containing 10% calf serum, 100 u/ml penicillin-streptomycin, L-glutamine) in vitro on 24-well cell culture plate at a concentration of 10^6/ml. Blank control group, test group, and Pre-S (2) control group were included. IL-2 (30 IU/ml) and test drug (0.1 μg/ml, 1 μg/ml, 10 μg/ml) were separately added into the wells. After the cells were cultured for 6 days, IL-2 and the test drug were added at the same doses to stimulate the cells again. Then 3H-TdR (1 uCi/ml) was added and further cultured for 18 hours. The cells were collected and tested by liquid scintillation.

CH3(CH2)7CH═CH(CH2)—CO, CH3CH2CH═CHCH2CH═CH(CH2)7CO7KSSQYIKANSKFIGITEGGGDPRVRGLYFPA (not fully specified (N-terminus); printed as CH3(CH2)7CH═CH(CH2)—CO, CH3CH2CH═CHCH2CH═CH(CH2)7CO7KSSQYIKANSKFIGITEGGGDPRVRGLYFPA) [SEQ ID NO:3]
proliferation of IFN-γ secreting cells [1]: induce the proliferation of IFN-γ secreting cells in human PBMC in a notable dose-effect dependence relation
CTL effect, lysis of target cells [2]: induce the CTL effect in human PBMC, and specifically lyzed and destroyed target cells

CH3(CH2)10COKSSPADREGGGSLNFLGGTTVSSSDPRVRGLYFPA (Lauroyl-KSSPADREGGGSLNFLGGTTVSSSDPRVRGLYFPA) [SEQ ID NO:50]
conversion of T-lymphocytes into Th1/Th2 type [3]: induce the conversion of T-lymphocytes into both Th1 and Th2 types, with the conversion into Th1 type the most obvious

CH3(CH2)14COKSSPADREAAAFLPSDFFPSVGGGDPRVRGLYFPA (Palmitoyl-KSSPADREAAAFLPSDFFPSVGGGDPRVRGLYFPA) [SEQ ID NO:56]
minimum effective dose [4]: 0.01 nmol

CH3(CH2)14COKSSQYIKANSKFIGITEAAALLCLIFLLVGGGDPRVRGLYFPA (Palmitoyl-KSSQYIKANSKFIGITEAAALLCLIFLLVGGGDPRVRGLYFPA) [SEQ ID NO:51]
proliferation of PBMCs [5]: stimulated the proliferation of PBMCs from acute hepatitis B patient in convalescent phase in a manner of dose dependence
